US11555202B2, “Elite event EE-GM5 and methods and kits for identifying such event in biological samples” (priority 2016, dated 2023)

Test system: soybean plants containing event EE-GM5
Assay: HPPD inhibitor herbicide tolerance field trials on plants with EE-GM5 (maximum phytotoxicity)
Format: in vivo, soybean (Glycine max)
Settings: for tolerance of plants with EE-GM5 to the herbicide: field, different locations over 2 years, applied pre-emergence or post-emergence
Procedure: Tolerance of plants comprising EE-GM5 to HPPD inhibitor herbicides was tested at different locations in the field over 2 years. […] All post-emergence treatments were at the V2-V3 stage, with adjuvants crop oil concentrate and ammonium sulfate added to increase herbicide activity.
The “maximum phytotoxicity” as used herein is the highest phytotoxicity rating recorded at any observation during the duration of a trial (with 3 to 4 observations per trial). In existing weed control applications, a normal (1×) dose for isoxaflutole (IFT) in pre- or post-emergence application and for MST in post-emergence application is 105 gr/ha, and a normal (1×) dose for mesotrione in pre-emergence application is 210 gr/ha.
Also, in several field trials across 2 years, soybean plants with event EE-GM5 had good tolerance towards experimental HPPD inhibitor compound 2-methyl-N-(5-methyl-1,3,4-oxadiazol-2-yl)-3-(methylsulfonyl)-4-(trifluoromethyl)benzamide (U.S. Pat. No. 9,101,141) when applied pre-emergence at 400 gr ai/ha or post-emergence at 200 gr ai/ha, respectively (the average maximum phytotoxicity value for each treatment was below 20%). […] All post-emergence treatments were at the V2-V3 stage, with adjuvants crop oil concentrate and ammonium sulfate added to increase herbicide activity.
Also, plants with EE-GM5 when treated post-emergent (V2-V3) with topramezone at 36 g ai/ha (+COC and AMS) in 2 field trials in the US gave an average maximum phytotoxicity of 11%, showing EE-GM5 also confers good tolerance to this HPPD inhibitor.

In the case of `CSc1c(C(F)(F)F)ccc(C(=O)Nc2nnnn2C)c1Cl` [2-chloro-3-(methylsulfanyl)-N-(1-methyl-1H-tetrazol-5-yl)-4-(trifluoromethyl)benzamide], the average maximum phytotoxicity (3rd year, EE-GM5 in Thorne background, 150 g/ha post-emergence, 3 field trial locations) is reported as 13.3% and the average maximum phytotoxicity (several field trials across 2 years, post-emergence (V2-V3) at 100-150 gr ai/ha) is reported as 20%.

For `Cc1nnc(NC(=O)c2ccc(C(F)(F)F)c(S(C)(=O)=O)c2C)o1` [2-methyl-N-(5-methyl-1,3,4-oxadiazol-2-yl)-3-(methylsulfonyl)-4-(trifluoromethyl)benzamide], the “average maximum phytotoxicity value” (several field trials across 2 years, post-emergence (V2-V3) at 200 gr ai/ha) was “below 20%” and the “average maximum phytotoxicity value” (several field trials across 2 years, pre-emergence at 400 gr ai/ha) was “below 20%”.

For `CS(=O)(=O)c1cc(C(F)(F)F)ccc1C(=O)c1cnoc1C1CC1` [isoxaflutole, (5-cyclopropyl-4-isoxazolyl)[2-(methylsulfonyl)-4-(trifluoromethyl)phenyl]methanone], the average maximum phytotoxicity (3rd year, EE-GM5 in Thorne background, post-emergence V2-V3 stage at 210 g/ha, 4 locations) was 10.9%, the maximum phytotoxicity (3rd year, EE-GM5 in Thorne background, pre-emergence at 410 g/ha, one field trial location) was 9% and the “tolerance of plants with EE-GM5 to the herbicide” value was “commercially relevant tolerance”.

`CS(=O)(=O)c1ccc(C(=O)C2C(=O)CCCC2=O)c([N+](=O)[O-])c1` [mesotrione, 2-[4-(Methylsulfonyl)-2-nitrobenzoyl]cyclohexane-1,3-dione] was tested, and the “tolerance of plants with EE-GM5 to the herbicide” value was “commercially relevant tolerance”.

For `Cc1c(C(=O)c2cnn(C)c2O)ccc(S(C)(=O)=O)c1C1=NOCC1` [topramezone, [3-(4,5-dihydro-3-isoxazolyl)-2-methyl-4-(methylsulfonyl)phenyl](5-hydroxy-1-methyl-1H-pyrazol-4-yl)methanone], the average maximum phytotoxicity (post-emergent (V2-V3) at 36 g ai/ha (+COC and AMS), 2 field trials in the US) was 11%.
